Measured values: patent US20070075630A1, “Organic compositions” (priority 2005, published 2007)

Assay: solubility of organic semiconductor in solvent (Table 1, formulation and processing)
Assay type: physicochemical
Conditions: for solubility in THF: solvent THF

Row | SMILES | solubility in THF | solubility (in words, compared with 6PTTP6) (solvent not stated)
1 | CC(COc1ccc(-c2ccc(-c3ccc(-c4ccc(OCC(C)COC5CCCCO5)cc4)s3)s2)cc1)COC1CCCCO1 (stereo not drawn) [3(3THPO,2Me)-O-PTTP- O-3(THPO,2Me), 5,5′-Bis-[4-(2-methyl-propoxy-tetrahydro-pyran)-phenoxy]-[2,2′]bithiophenyl] | Well soluble in THF (about 75,000 ppm) | 
2 | CCC(CC)COc1ccc(-c2ccc(-c3ccc(-c4ccc(OCC(CC)CC)cc4)s3)s2)cc1 [4(2Et)-O-PTTP-O- 4(2Et), 5,5′-bis(4-(2-ethylbutyloxy)phenyl)-2,2′-bithiophene] | solubility in THF about 4,900 ppm | 
3 | CCCCC(C)COc1ccc(-c2ccc(-c3ccc(-c4ccc(OCC(C)CCCC)cc4)s3)s2)cc1 (stereo not drawn) [6(2Me)-O-PTTP-O- 6(2Me), 5,5′-bis(4-(2-methylhexyloxy)phenyl)-2,2′-bithiophene] | sufficiently soluble in THF (about 61,000 ppm) DSC: mp = 197 °C | 
4 | CCCOCCc1ccc(-c2ccc(-c3ccc(-c4ccc(CCOCCC)cc4)s3)s2)cc1 [3O2PTTP2O3, 5,5═-Bis(4-(propxyethyl)phenyl)-2,2′-bithiophene] |  | Solubility like 6PTTP6
5 | CCCCCC(C)Oc1ccc(-c2ccc(-c3ccc(-c4ccc(OC(C)CCCCC)cc4)s3)s2)cc1 (stereo not drawn) [6(1Me)-O-PTTP-O- 6(1Me), 5,5′bis(4-(1-methylhexyloxy)phenyl)-2,2′-bithiophene] | ~89,000 ppm | 
6 | CC(C)CCCC(C)CCOc1ccc(-c2ccc(-c3ccc(-c4ccc(OCCC(C)CCCC(C)C)cc4)s3)s2)cc1 (stereo not drawn) [8(3,7Me)-O-PTTP-O- 8(3,7Me), 5,5′-bis(4-(3,7-dimethyloctyloxy)phenyl)-2,2′-bithiophene] | solubility in THF about 12,000 ppm DCS: mp = 192° C., | 
7 | CC(CO)COc1ccc(-c2ccc(-c3ccc(-c4ccc(OCC(C)CO)cc4)s3)s2)cc1 (stereo not drawn) [3(3OH,2Me)-O-PTTP- O-3(3OH,2Me), 3-(4-{5′-[4-(3-Hydroxy-2-methyl-propoxy)-phenyl]-[2,2′]bithiophenyl-5-yl}-phenoxy)-2-methyl-propan-1-ol] | Low solubility in THF (600 ppm) | 
8 | CCCCCC(CC)Oc1ccc(-c2ccc(-c3ccc(-c4ccc(OC(CC)CCCCC)cc4)s3)s2)cc1 (stereo not drawn) [6(1Et)-O-PTTP-O- 6(1Et), 5,5═-Bis-[4-(1-ethyl-hexyloxy)-phenyl]-[2,2′]bithiophenyl] | Well soluble in THF (about 330,000 ppm) DSC: mp = 97-102° C., (broad transition) | 
9 | C=CC(C=C)OC(=O)CCCCCOc1ccc(-c2ccc(-c3ccc(-c4ccc(OCCCCCC(=O)OC(C=C)C=C)cc4)s3)s2)cc1 [6-[4-(5′-[5-(1-Vinyl-allyloxycarbonyl)-pentyloxy]-phenyl}-[2,2′]bithiophenyl-5-yl)-phenoxy]-hexanoic acid 1-vinyl-allyl ester] | well soluble in THF (131,000 ppm) | 
10 | CCCCCCOc1ccc(-c2ccc(-c3ccc(-c4ccc(OCCCCCC)cc4)s3)s2)cc1 [6-O-PTTP-O-6, 5,5′-bis(4-hexyloxyphenyl)-2,2′-bithiophene] | solubility in THF about 600 ppm, lowest value by far. Differential scanning calorimetry | 
11 | CC(C)CCCOc1ccc(-c2ccc(-c3ccc(-c4ccc(OCCCC(C)C)cc4)s3)s2)cc1 [5(4Me)-O-PTTP-O-5(4Me), 5,5′-bis(4-(4-methylpentyloxy)phenyl)-2,2′-bithiophene] | solubility in THF about 5400 ppm. DSC: mp =250° C., smaller | 
12 | CC(C)(C)[Si](OCCCCCCOc1ccc(-c2ccc(-c3ccc(-c4ccc(OCCCCCCO[Si](c5ccccc5)(c5ccccc5)C(C)(C)C)cc4)s3)s2)cc1)(c1ccccc1)c1ccccc1 [6(6TBDPSO)-O- PTTP-O- 6(6TBDPSO), 5,5′-Bis-{4-[6-(tert-butyl-diphenyl-silanyloxy)-hexyloxy]-phenyl}-[2,2′]bithiophenyl] | # THF (about 310,000 ppm) | 
